The supplement of paper PMC10307832

Columns and labels:
Assay in all cases: relative viability (nuclei count vs DMSO), 5 days (fraction); higher = more cells survive
LOU-NH91 = test system: LOU-NH91
In short: (§1)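 Each reported value is a median over duplicate plates. It expresses relative viability: treated-well nuclei count divided by vehicle-well nuclei count. Lung cancer cell lines in 1536-well plates were dosed by pin tool a day after seeding, alone with one drug or with a fixed anchor-drug dose plus five library-drug doses (not always all listed) in √10 steps, and nuclei were counted after 5 days.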

NCI-H23 = test system: NCI-H23
In short: as §1

PC-3 [JPC-3] = test system: PC-3 [JPC-3]
In short: as §1

NCI-H460 = test system: NCI-H460
In short: as §1

LCLC-97TM1 = test system: LCLC-97TM1
In short: as §1

NCI-H1915 = test system: NCI-H1915
In short: as §1

NCI-H2342 = test system: NCI-H2342
In short: as §1

NCI-H2170 = test system: NCI-H2170
In short: as §1

NCI-H2126 = test system: NCI-H2126
In short: as §1

NCI-H1793 = test system: NCI-H1793
In short: as §1

LXF-289 = test system: LXF-289
In short: as §1

NCI-H441 = test system: NCI-H441
In short: as §1

BEN = test system: BEN
In short: as §1

LU99A = test system: LU99A
In short: as §1

NCI-H1666 = test system: NCI-H1666
In short: as §1

A-427 = test system: A-427
In short: as §1

HARA = test system: HARA
In short: as §1

NCI-H1395 = test system: NCI-H1395
In short: as §1

NCI-H322M = test system: NCI-H322M
In short: as §1

COCC1(CO)C(=O)C2CCN1CC2 (stereo not given) [PRIMA-1MET] + NC(=O)Nc1cc(-c2cccc(F)c2)sc1C(=O)N[C@H]1CCCNC1 [AZD7762] (partner 0.2 µM)
relative viability (LOU-NH91; first compound 0.2 µM): 0.828 | relative viability (LOU-NH91; first compound 0.6325 µM): 0.74 | relative viability (LOU-NH91; first compound 2 µM): 0.658 | relative viability (LOU-NH91; first compound 6.325 µM): 0.71 | relative viability (LOU-NH91; first compound 20 µM): 0.386 | relative viability (NCI-H23; first compound 0.2 µM): 0.212 | relative viability (NCI-H23; first compound 0.6325 µM): 0.225 | relative viability (NCI-H23; first compound 2 µM): 0.231 | relative viability (NCI-H23; first compound 6.325 µM): 0.209 | relative viability (NCI-H23; first compound 20 µM): 0.102 | relative viability (PC-3 [JPC-3]; first compound 0.2 µM): 1 | relative viability (PC-3 [JPC-3]; first compound 0.6325 µM): 0.797 | relative viability (PC-3 [JPC-3]; first compound 2 µM): 0.811 | relative viability (PC-3 [JPC-3]; first compound 6.325 µM): 0.904 | relative viability (PC-3 [JPC-3]; first compound 20 µM): 0.672 | relative viability (NCI-H460; first compound 0.2 µM): 0.705 | relative viability (NCI-H460; first compound 0.6325 µM): 0.382 | relative viability (NCI-H460; first compound 2 µM): 0.659 | relative viability (NCI-H460; first compound 6.325 µM): 0.703 | relative viability (NCI-H460; first compound 20 µM): 0.251 | relative viability (LCLC-97TM1; first compound 0.2 µM): 0.268 | relative viability (LCLC-97TM1; first compound 0.6325 µM): 0.226 | relative viability (LCLC-97TM1; first compound 2 µM): 0.212 | relative viability (LCLC-97TM1; first compound 6.325 µM): 0.336 | relative viability (LCLC-97TM1; first compound 20 µM): 0.166 | relative viability (NCI-H1915; first compound 0.2 µM): 0.745 | relative viability (NCI-H1915; first compound 0.6325 µM): 0.507 | relative viability (NCI-H1915; first compound 2 µM): 0.517 | relative viability (NCI-H1915; first compound 6.325 µM): 0.82 | relative viability (NCI-H1915; first compound 20 µM): 0.657 | relative viability (NCI-H2342; first compound 0.2 µM): 0.566 | relative viability (NCI-H2342; first compound 0.6325 µM): 0.371 | relative viability (NCI-H2342; first compound 6.325 µM): 0.531 | relative viability (NCI-H2342; first compound 20 µM): 0.41 | relative viability (NCI-H2170; first compound 0.2 µM): 1.06 | relative viability (NCI-H2170; first compound 0.6325 µM): 0.604 | relative viability (NCI-H2170; first compound 2 µM): 0.644 | relative viability (NCI-H2170; first compound 6.325 µM): 1 | relative viability (NCI-H2170; first compound 20 µM): 0.836 | relative viability (NCI-H2126; first compound 0.2 µM): 1.05 | relative viability (NCI-H2126; first compound 0.6325 µM): 1.02 | relative viability (NCI-H2126; first compound 2 µM): 0.975 | relative viability (NCI-H2126; first compound 6.325 µM): 1.02 | relative viability (NCI-H2126; first compound 20 µM): 0.978 | relative viability (NCI-H1793; first compound 0.2 µM): 0.408 | relative viability (NCI-H1793; first compound 0.6325 µM): 0.651 | relative viability (NCI-H1793; first compound 6.325 µM): 0.685 | relative viability (NCI-H1793; first compound 20 µM): 0.382 | relative viability (LXF-289; first compound 0.2 µM): 1.15 | relative viability (LXF-289; first compound 0.6325 µM): 1.07 | relative viability (LXF-289; first compound 2 µM): 1.13 | relative viability (LXF-289; first compound 6.325 µM): 1.12 | relative viability (LXF-289; first compound 20 µM): 1.01 | relative viability (NCI-H441; first compound 0.2 µM): 1.09 | relative viability (NCI-H441; first compound 0.6325 µM): 1.06 | relative viability (NCI-H441; first compound 2 µM): 0.833 | relative viability (NCI-H441; first compound 6.325 µM): 1.1 | relative viability (NCI-H441; first compound 20 µM): 0.731 | relative viability (BEN; first compound 0.2 µM): 0.733 | relative viability (BEN; first compound 0.6325 µM): 0.603 | relative viability (BEN; first compound 6.325 µM): 0.653 | relative viability (BEN; first compound 20 µM): 0.652 | relative viability (LU99A; first compound 0.2 µM): 0.548 | relative viability (LU99A; first compound 0.6325 µM): 0.167 | relative viability (LU99A; first compound 2 µM): 0.443 | relative viability (LU99A; first compound 6.325 µM): 0.361 | relative viability (LU99A; first compound 20 µM): 0.0555 | relative viability (NCI-H1666; first compound 0.2 µM): 0.841 | relative viability (NCI-H1666; first compound 0.6325 µM): 0.688 | relative viability (NCI-H1666; first compound 2 µM): 0.798 | relative viability (NCI-H1666; first compound 6.325 µM): 0.817 | relative viability (NCI-H1666; first compound 20 µM): 0.728 | relative viability (A-427; first compound 0.2 µM): 0.741 | relative viability (A-427; first compound 0.6325 µM): 0.795 | relative viability (A-427; first compound 2 µM): 0.756 | relative viability (A-427; first compound 6.325 µM): 0.711 | relative viability (A-427; first compound 20 µM): 0.557 | relative viability (HARA; first compound 0.2 µM): 0.308 | relative viability (HARA; first compound 0.6325 µM): 0.265 | relative viability (HARA; first compound 2 µM): 0.493 | relative viability (HARA; first compound 6.325 µM): 0.333 | relative viability (HARA; first compound 20 µM): 0.254 | relative viability (NCI-H1395; first compound 0.2 µM): 0.376 | relative viability (NCI-H1395; first compound 2 µM): 0.385 | relative viability (NCI-H1395; first compound 6.325 µM): 0.38 | relative viability (NCI-H1395; first compound 20 µM): 0.129 | relative viability (NCI-H322M; first compound 0.2 µM): 0.657 | relative viability (NCI-H322M; first compound 0.6325 µM): 0.558 | relative viability (NCI-H322M; first compound 6.325 µM): 0.59 | relative viability (NCI-H322M; first compound 20 µM): 0.406
